The record followed here is patent US20220106282A1, “TREATMENT FOR BREAST CANCER, INCLUDING TRIPLE-NEGATIVE BREAST CANCER” (priority 2018, published 2022).

pIC50: −log10 of the molar value. Values joined by “and” are separate entries in the source; they are usually repeats but may differ in a detail not shown here. Identical values can stand only once. “Also recorded” adds a separate entry of the source.

Series [1] relates to FVB mice transgenic for HER-2/neu. Nature of the series: Acute oral toxicity, OECD 423 test. The class given is in vivo. As to the method: 12 female mice were used in the experiment.
The dosage form for administration was prepared ex tempore.
No deaths were detected either.
Further the observations were made once per day.
The medicament was administered in 2 steps with a break of 3 hours in a volume of 0.1 ml per 10 g of a body weight per step at the concentration of 100 mg/ml, because the suspension in oil is thicker at higher concentrations and precludes the medicament to be administered through a gavage. […] Regardless of the group the width of the palpebral fissure of the animals was almost unchanged during the entire observation period. No pathological discharges from the eyes were detected. The nose was pink, moderately moist without pathological discharges. The fur of all mice was neat and shiny without bald spots. A 3% decrease of the animals body weight was registered on Day 2 and a 4% weight decrease on Day 7 from the initial weight (Table 3).

The test system of series [2] is normal human skin fibroblasts. Nature of the series: Growth of normal human skin fibroblasts (nonspecific effects). The class given is cell-based. As to conditions: concentration of 20 μg/ml; cells having no estrogen receptors. As to the method:
The cells were seeded on Carrel vials at 50×10^4 cells per flask. To study the proliferative activity of the cells under conditions of sulfatase inhibition, 24 […], and then these tumor cell lines were incubated for various periods of time (24 to 72 hrs). The inhibitor was dissolved in DMSO. […] To exclude the cytotoxic effect of DMSO, a control sample comprising DMSO without sulfatase inhibitor was prepared. To exclude nonspecific detrimental effects of the compounds, normal human skin fibroblasts were used. Then the cells were detached with the versene-trypsin solution (Biolot), plated onto Carrel vials containing a fresh complete culture medium. The cells were counted when untreated control cells reached the maximum cell density per unit of surface area of a culture flask (monolayer), and their number was set as 100%. The proliferative activity of all of the studied cell cultures exposed to sulfatase inhibitors was determined in triplicate.

The test system of series [3] is uterine body. Nature of the series: Hormonal effect: uterine body weight in tumor-bearing mice. It counts as in vivo, mouse. As to the method: To estimate the hormonal effect of the medicament, the weight of the uterine body without uterine horns was measured (Table 9).
Series [4] deals with human MCF-7 cell culture (breast adenocarcinoma). Nature of the series: Proliferation of MCF-7 cells under sulfatase inhibition. It counts as cell-based. The note with it: concentration of 20 μg/ml. How it is done: The cells were seeded on Carrel vials at 50×10^4 cells per flask. To study the proliferative activity of the cells under conditions of sulfatase inhibition, 24 hours after seeding the culture medium […], and then these tumor cell lines were incubated for various periods of time (24 to 72 hrs). The inhibitor was dissolved in DMSO. […] To exclude the cytotoxic effect of DMSO, a control sample comprising DMSO without sulfatase inhibitor was prepared. To exclude nonspecific detrimental effects of the compounds, normal human skin fibroblasts were used. Then the cells were detached with the versene-trypsin solution (Biolot), plated onto Carrel vials containing a fresh complete culture medium. The cells were counted when untreated control cells reached the maximum cell density per unit of surface area of a culture flask (monolayer), and their number was set as 100%. The proliferative activity of all of the studied cell cultures exposed to sulfatase inhibitors was determined in triplicate.

Series [5] relates to MDA-MB-231 line of cells of triple-negative breast cancer. Briefly: Cell growth inhibition, MDA-MB-231. The class given is cell-based. As to conditions: Homo sapiens.
Series [6] has as its system passaged human tumor of triple-negative breast cancer. Briefly: Animal models with passaged human triple-negative breast tumor. The class given is in vivo.

The term LD50 denotes the dose at which mortality reaches 50%. Read a low LD50 as greater toxicity. As a reminder, the pIC50 is the negative decadic logarithm of the IC50, by convention in mol/L. Regarding `C[C@H]1Oc2cc(OS(N)(=O)=O)ccc2[C@H]2CC[C@]3(C)C(=O)CCC[C@H]3[C@H]21` [compound of formula (1), 3-O-sulphamoyloxy-7β-methyl-D-homo-6-oxa-8α-estra-1,3,5(10)-trien-17a-one], the “Body weight, individual mice” value in series [1] (2000 mg/kg i.g. (title of Table 3), Day 1 (before administration), listed as medicament) was 26.0 and 28.4 and 27.7 and 26.2 (2×) and 28.3; in series [1] (2000 mg/kg i.g., Day 2, listed as medicament, in g (unit assumed)), 25.7 and 27.7 and 27.0 and 25.3 and 27.4 and 24.7; in series [1] (2000 mg/kg i.g., Day 7, listed as medicament, in g (unit assumed)) it was 25.0 and 25.8 and 29.6 and 24.6 and 27.6 and 25.7; in series [1] (2000 mg/kg i.g., Day 14, listed as medicament, in g (unit assumed)) it was 25.1 and 28.3 and 28.0 and 25.9 and 29.1 and 26.5. In series [1] (2000 mg/kg i.g., Day 1 (before administration)), the Body weight, average is 27.1 g. For the same molecule, the “Decrease of body weight from the initial weight” value in series [1] (2000 mg/kg, Day 2) amounted to 3%. The molecule further returned an LD50 in series [1] (oral (i.g.), OECD 423, listed as anti-cancer agent) greater than 5000 mg/kg. Moreover, the “Hazard category according to the OECD 423 test” value in series [1] (oral (i.g.), listed as anti-cancer agent) is 5th; in series [1] (oral (i.g.), listed as medicament) it was 5th or non-classified and 5th or unclassified. For the same molecule, the “Growth of human skin fibroblasts” value in series [2] is recorded as “does not influence the growth”. The Uterine body weight in series [3] (20 mg/kg, all mice) turned out to be 48 ± 5 mg; in series [3] (20 mg/kg, estrous phase D), 49 ± 16 mg; in series [3] (20 mg/kg, estrous phase E), 47 ± 7 mg; in series [3] (100 mg/kg, all mice), 50 ± 6 mg; in series [3] (100 mg/kg, estrous phase D) it was 26 ± 12 mg; in series [3] (100 mg/kg, estrous phase E), 56 ± 5 mg. In series [3] (uterine body weight versus control group, listed as medicament), the “Hormonal (uterotropic) effect on the uterus” value was “no uterotropic activity; also recorded: did not differ from that of the control group”. Further, the “Proliferation of MCF-7 tumor cells” value in series [4] is “completely blocks the proliferation”. The molecule also had a negative logarithm of the IC50 (pIC50) in series [5] of 5.32. For the same molecule, in series [6], the “Action compared to Tamoxifen and Letrozole” value is given as “better action”.
